Legend:
L858R/T790M/C797S EGFR = target: T1, L858R/T790M/C797S EGFR (Homo sapiens, UniProt P00533, C797S/L858R/T790M); assay: EGFR degradation HTRF assay in H1975-clone #25 (LTC) cells; assay type: cell-based; details: 16h treatment; for DC50: H1975 # 25-LTC (L858R/T790M/C797S), HTRF; for Dmax: NCI-H1975, H1975 # 25-LTC (L858R/T790M/C797S), maximum percentage of degradation
T1 construct: expressed in transfected cells; host or cells: H1975 clone #25 (lentiviral over-expression, endogenous EGFR knocked out by sgRNA)
Method in brief: (§1)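 EGFR levels quantified by HTRF on lysates after 16 h compound exposure (top 10 uM, 5-fold, 8 points) in single-cell H1975 clones expressing only exogenous mutant EGFR after sgRNA knockout of endogenous copies. DC50 derived by four-parameter logistic fitting of inhibition percentage.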

Del19/T790M/C797S EGFR = assay: EGFR degradation HTRF assay in H1975-clone #28 (DTC) cells; assay type: cell-based; details: H1975 # 28 DTC (Del19/T790M/C797S), 16h treatment; for DC50: HTRF; for Dmax (%): maximum percentage of degradation
Method in brief: as §1

T1 sequence (P00533 25-1210 T790M/C797S/L858R): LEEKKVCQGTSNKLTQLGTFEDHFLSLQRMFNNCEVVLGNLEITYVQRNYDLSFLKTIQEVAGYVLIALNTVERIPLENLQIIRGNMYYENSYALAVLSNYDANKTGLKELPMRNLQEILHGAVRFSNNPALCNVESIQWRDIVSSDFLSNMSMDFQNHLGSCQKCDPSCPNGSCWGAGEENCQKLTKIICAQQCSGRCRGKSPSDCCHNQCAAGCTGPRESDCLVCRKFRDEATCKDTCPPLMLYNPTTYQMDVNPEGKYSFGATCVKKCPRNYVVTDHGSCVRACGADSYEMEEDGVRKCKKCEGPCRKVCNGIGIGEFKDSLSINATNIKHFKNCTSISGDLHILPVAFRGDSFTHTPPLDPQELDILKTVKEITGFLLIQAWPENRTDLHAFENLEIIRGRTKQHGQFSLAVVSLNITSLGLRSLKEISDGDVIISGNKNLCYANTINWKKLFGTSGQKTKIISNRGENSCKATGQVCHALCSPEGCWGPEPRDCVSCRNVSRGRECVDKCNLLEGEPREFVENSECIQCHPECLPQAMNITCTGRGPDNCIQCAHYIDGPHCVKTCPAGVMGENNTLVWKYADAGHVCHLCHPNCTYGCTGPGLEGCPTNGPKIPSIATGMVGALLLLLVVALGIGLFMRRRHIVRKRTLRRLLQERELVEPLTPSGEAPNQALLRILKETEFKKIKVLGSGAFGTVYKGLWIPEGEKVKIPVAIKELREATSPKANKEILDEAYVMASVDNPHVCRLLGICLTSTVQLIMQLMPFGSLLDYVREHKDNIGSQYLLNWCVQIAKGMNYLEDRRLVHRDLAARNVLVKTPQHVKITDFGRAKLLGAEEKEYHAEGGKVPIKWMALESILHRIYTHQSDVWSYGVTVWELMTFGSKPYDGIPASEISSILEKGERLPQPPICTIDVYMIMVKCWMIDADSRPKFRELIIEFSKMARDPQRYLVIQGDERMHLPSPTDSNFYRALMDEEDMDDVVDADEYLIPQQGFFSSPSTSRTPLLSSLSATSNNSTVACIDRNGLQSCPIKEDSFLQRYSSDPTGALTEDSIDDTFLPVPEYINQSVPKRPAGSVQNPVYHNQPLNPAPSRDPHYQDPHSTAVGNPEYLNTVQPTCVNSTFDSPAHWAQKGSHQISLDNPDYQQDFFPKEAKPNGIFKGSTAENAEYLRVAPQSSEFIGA

Row | SMILES | DC50 (L858R/T790M/C797S EGFR) | Dmax (L858R/T790M/C797S EGFR) | DC50 (Del19/T790M/C797S EGFR) | Dmax (%) (Del19/T790M/C797S EGFR)
1 | Cc1cc2cc(n1)-c1cnn(C)c1OCCC[C@@H](C)CN1/C(=N/C2=O)Nc2ccc(CN3CCN(CC4CN(c5cc(F)c([C@H]6CCC(=O)NC6=O)c(F)c5)C4)CC3)cc21 [Example 150, (R)-3-(2,6-difluoro-4-(3-((4-(((R,E)-1^1,2^6,7-trimethyl-3-oxo-5^2,5^1-dihydro-1^1H,5^1H-11-oxa-4-aza-5(2,1)-benzo[d]imidazola-2(2,4)-pyridina-(4,5)-pyrazolacycloundecaphane-5^6-yl)methyl)piperazin-1-yl)methyl)azetidin-1-yl)phenyl)piperidine-2,6-dione] | 0.705 nM | 87.9% | 2.17 nM | 79.66%
2 | Cc1cc2cc(n1)-c1cnn(C)c1OCCC[C@@H](C)CN1/C(=N/C2=O)Nc2ccc(N3CCN(C4CCN(c5ccc(C6CCC(=O)NC6=O)nc5C)CC4)[C@@H](CC#N)C3)cc21 (stereo partly drawn) [Example 456, 2-((2S)-1-(1-(6-(2,6-dioxopiperidin-3-yl)-2-methylpyridin-3-yl)piperidin-4-yl)-4-((R,E)-1^1,2^6,7-trimethyl-3-oxo-5^2,5^3-dihydro-1^1H,5^1H-11-oxa-4-aza-5(2,1)-benzo[d]imidazola-2(2,4)-pyridina-1(4,5)-pyrazolacycloundecaphane-5^6-yl)piperazin-2-yl)acetonitrile] | 0.676 nM | 93.2% | 0.542 nM | 84.5%
3 | Cc1cc2cc(n1)-c1cnn(C)c1OCCC[C@@H](C)CN1/C(=N/C2=O)Nc2ccc(N(C)C3CN(C4CCN(c5cc(F)c([C@H]6CCC(=O)NC6=O)c(F)c5)CC4)C3)cc21 [Example 438, (R)-3-(2,6-difluoro-4-(4-(3-(methyl((R,E)-1^1,2^6,7-trimethyl-3-oxo-5^2,5^3-dihydro-1^1H,5^1H-11-oxa-4-aza-5(2,1)-benzo[d]imidazola-2(2,4)-pyridina-1(4,5)-pyrazolacycloundecaphane-5^6-yl)amino)azetidin-1-yl)piperidin-1-yl)phenyl)piperidine-2,6-dione] | 0.964 nM | 85.6% | 0.983 nM | 72.51%
4 | Cc1cc2cc(n1)-c1cnn(C)c1OCCC[C@@H](C)CN1/C(=N/C2=O)Nc2ccc(CN3CC4CC(C3)N4C(=O)[C@@H]3CCN(c4cc(F)c([C@H]5CCC(=O)NC5=O)c(F)c4)C3)cc21 [Example 163, (3R)-3-(2,6-difluoro-4-((3R)-3-(3-(((R,E)-1^1,2^6,7-trimethyl-3-oxo-5^2,5^3-dihydro-1^1H,5^1H-11-oxa-4-aza-5(2,1)-benzo[d]imidazola-2(2,4)-pyridina-1(4,5)-pyrazolacycloundecaphane-5^6-yl)methyl)-3,6-diazabicyclo[3.1.1]heptane-6-carbonyl)pyrrolidin-1-yl)phenyl)piperidine-2,6-dione] | 1.14 nM | 83.1% | 1.76 nM | 66.41%
5 | Cc1cc2cc(n1)-c1cnn(C)c1OCCCCCN1/C(=N/C2=O)Nc2ccc(CN3CCN(CCc4cc(F)c([C@H]5CCC(=O)NC5=O)c(F)c4)CC3)cc21 [Example 144, (R,E)-3-(4-(2-(4-((1^1,2^6-dimethyl-3-oxo-5^2,5^3-dihydro-1^1H,5^1H-11-oxa-4-aza-5(2,1)-benzo[d]imidazola-2(2,4)-pyridina-1(4,5)-pyrazolacycloundecaphane-5^6-yl)methyl)piperazin-1-yl)ethyl)-2,6-difluorophenyl)piperidine-2,6-dione] | 0.761 nM | 80.8% | 0.508 nM | 55.85%
6 | Cc1cc2cc(n1)-c1cnn(C)c1OCCC[C@@H](C)CN1/C(=N/C2=O)Nc2ccc(N3CCN(C(=O)[C@@H]4CN(c5cc(F)c([C@H]6CCC(=O)NC6=O)c(F)c5)CC4(C)C)CC3)cc21 [Example 326, (R)-3-(4-((S)-3,3-dimethyl-4-(4-((R,E)-1^1,2^6,7-trimethyl-3-oxo-5^2,5′-dihydro-1^1H,5^1H-11-oxa-4-aza-5(2,1)-benzo[d]imidazola-2(2,4)-pyridina-1(4,5)-pyrazolacycloundecaphane-5^6-yl)piperazine-1-carbonyl)pyrrolidin-1-yl)-2,6-difluorophenyl)piperidine-2,6-dione] | 1.88 nM | 88.9% | 1.71 nM | 81.61%
7 | Cc1cc2cc(n1)-c1cnn(C)c1OCCC[C@@H](C)CN1/C(=N/C2=O)Nc2ccc(N3CCN(CCc4cc(F)c([C@H]5CCC(=O)NC5=O)c(F)c4)CC3=O)cc21 [Example 366, (R)-3-(2,6-difluoro-4-(2-(3-oxo-4-((R,E)-1^1,2^6,7-trimethyl-3-oxo-5^2,5^3-dihydro-1^1H,5^1H-11-oxa-4-aza-5(2,1)-benzo[d]imidazola-2(2,4)-pyridina-1(4,5)-pyrazolacycloundecaphane-5^6-yl)piperazin-1-yl)ethyl)phenyl)piperidine-2,6-dione] | 0.372 nM | 91.8% | 0.539 nM | 84.74%
8 | Cc1cc2cc(n1)-c1cnn(C)c1OCCC[C@@H](C)CN1/C(=N/C2=O)Nc2ccc(N3CCN(CCc4ccc(C5CCC(=O)NC5=O)nc4C)CC3)cc21 (stereo partly drawn) [Example 393, 3-(6-methyl-5-(2-(4-((R,E)-1^1,2^6,7-trimethyl-3-oxo-5^2,5^3-dihydro-1^1H,5^1H-11-oxa-4-aza-5(2,1)-benzo[d]imidazola-2(2,4)-pyridina-1(4,5)-pyrazolacycloundecaphane-5^6-yl)piperazin-1-yl)ethyl)pyridin-2-yl)piperidine-2,6-dione] | 0.34 nM | 89.8% | 0.54 nM | 77.73%
9 | Cc1cc2cc(n1)-c1cnn(C)c1OCCC[C@@H](C)CN1/C(=N/C2=O)Nc2ccc(N3CCN(CC4CN(c5cc(F)c([C@H]6CCC(=O)NC6=O)c(F)c5)C4)[C@@H](C#N)C3)cc21 [Example 423, (R)-1-((1-(4-((R)-2,6-dioxopiperidin-3-yl)-3,5-difluorophenyl)azetidin-3-yl)methyl)-4-((R,E)-1^1,2^6,7-trimethyl-3-oxo-5^2,5^3-dihydro-1^1H,5^1H-1l-oxa-4-aza-5(2,1)-benzo[d]imidazola-2(2,4)-pyridina-1(4,5)-pyrazolacycloundecaphane-5^6-yl)piperazine-2-carbonitrile] | 1.41 nM | 78.8% | 0.655 nM | 67.20%

More lines, main results first:

Row | DC50 (L858R/T790M/C797S EGFR) | Dmax (L858R/T790M/C797S EGFR) | DC50 (Del19/T790M/C797S EGFR) | SMILES | Dmax (%) (Del19/T790M/C797S EGFR)
10 | 0.602 nM | 93.2% | 0.565 nM | Cc1cc2cc(n1)-c1cnn(C)c1OCCCCCN1/C(=N/C2=O)Nc2ccc(C(=O)N(C)C3CCN(CCc4cc(F)c([C@H]5CCC(=O)NC5=O)c(F)c4)CC3)cc21 [Example 238, (R,E)-N-(1-(4-(2,6-dioxopiperidin-3-yl)-3,5-difluorophenethyl)piperidin-4-yl)-N,1^1,2^6-trimethyl-3-oxo-5^2,5^3-dihydro-1^1H,5^1H-11-oxa-4-aza-5(2,1)-benzo[d]imidazola-2(2,4)-pyridina-1(4,5)-pyrazolacycloundecaphane-5^6-carboxamide] | 83.62%
11 | 0.526 nM | 84.8% | 0.411 nM | Cc1cc2cc(n1)-c1cnn(C)c1OCCC[C@@H](C)CN1/C(=N/C2=O)Nc2ccc(C(=O)N(C)[C@@H]3CCN(CCc4cc(F)c([C@H]5CCC(=O)NC5=O)c(F)c4)C[C@H]3F)cc21 [Example 346, (R,E)-N—((3R,4R)-1-(4-((R)-2,6-dioxopiperidin-3-yl)-3,5-difluorophenethyl)-3-fluoropiperidin-4-yl)-N,1^1,2^6,7-tetramethyl-3-oxo-5^2,5^3-dihydro-1^1H,5^1H-11-oxa-4-aza-5(2,1)-benzo[d]imidazola-2(2,4)-pyridina-1(4,5)-pyrazolacycloundecaphane-5^6-carboxamide] | 78.78%
12 | 1.06 nM | 88.9% | 0.59 nM | Cc1cc2cc(n1)-c1cnn(C)c1OCCC[C@@H](C)CN1/C(=N/C2=O)Nc2ccc(C(=O)N(C)[C@@H]3CCN(CCc4cc(F)c([C@H]5CCC(=O)NC5=O)c(F)c4)CC3(F)F)cc21 [Example 250, (R,E)-N—((R)-1-(4-((R)-2,6-dioxopiperidin-3-yl)-3,5-difluorophenethyl)-3,3-difluoropiperidin-4-yl)-N,1^1,2^6,7-tetramethyl-3-oxo-5^2,5^3-dihydro-1^1H,5^1H-11-oxa-4-aza-5(2,1)-benzo[d]imidazola-2(2,4)-pyridina-1(4,5)-pyrazolacycloundecaphane-5^6-carboxamide] | 82.13%
13 | 0.861 nM | 90.6% | 0.668 nM | Cc1cc2cc(n1)-c1cnn(C)c1OCCC[C@@H](C)CN1/C(=N/C2=O)Nc2ccc(C(=O)N3CC(NCCc4cc(F)c([C@H]5CCC(=O)NC5=O)c(F)c4)C3)cc21 [Example 305, (R)-3-(2,6-difluoro-4-(2-((1-((R,E)-1^1,2^6,7-trimethyl-3-oxo-5^2,5^3-dihydro-1^1H,5^1H-11-oxa-4-aza-5(2,1)-benzo[d]imidazola-2(2,4)-pyridina-1(4,5)-pyrazolacycloundecaphane-5^6-carbonyl)azetidin-3-yl)amino)ethyl)phenyl)piperidine-2,6-dione] | 80.65%
14 | 0.546 nM | 88.4% | 0.42 nM | Cc1cc2cc(n1)-c1cnn(C)c1OCCCC1(CC1)CN1/C(=N/C2=O)Nc2ccc(C(=O)N(C)C3CCN(CCc4cc(F)c([C@H]5CCC(=O)NC5=O)c(F)c4)CC3)cc21 [Example 236, (R,E)-N-(1-(4-(2,6-dioxopiperidin-3-yl)-3,5-difluorophenethyl)piperidin-4-yl)-N,1′,6′-trimethyl-3′-oxospiro[cyclopropane-1,7′-11-oxa-4-aza-5(2,1)-benzo[d]imidazola-2(2,4)-pyridina-1(4,5)-pyrazolacycloundecaphane]-6′-carboxamide] | 87.56%
